Each molecule was assayed against Beta-3 Adrenergic Receptor (Homo sapiens (Human), UniProt P13945) (assay: Homogeneous Time-Resolved Fluorescence (HTRF) cAMP antagonist assay, IC50 determination). Conditions: CHO-K1 cells stably expressing recombinant receptor, isoproterenol at EC90.
Sequence of Beta-3 Adrenergic Receptor (P13945 whole entry, species assumed): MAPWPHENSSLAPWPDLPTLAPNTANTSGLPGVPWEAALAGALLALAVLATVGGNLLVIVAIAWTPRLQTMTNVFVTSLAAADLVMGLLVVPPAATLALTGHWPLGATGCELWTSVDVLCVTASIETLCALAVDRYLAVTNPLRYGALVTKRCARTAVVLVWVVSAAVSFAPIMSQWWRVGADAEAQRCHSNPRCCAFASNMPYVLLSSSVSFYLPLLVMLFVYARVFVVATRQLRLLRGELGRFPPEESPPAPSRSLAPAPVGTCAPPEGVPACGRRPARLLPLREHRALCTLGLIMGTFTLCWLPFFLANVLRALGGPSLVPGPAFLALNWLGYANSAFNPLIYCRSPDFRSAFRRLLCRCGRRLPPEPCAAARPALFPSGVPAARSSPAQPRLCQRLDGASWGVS
Type: cell-based
Procedure, shortened: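 Antagonist mode: isoproterenol at its predetermined EC90 added after compound to recombinant CHO-K1 cells in IBMX-containing PBS, 1 h, room temperature. Compounds tested as 5-fold, 10-point dilutions, top final typically 10 or 100 μM. HTRF signal converted to cAMP via standard curve, giving IC50.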
With Cc1ccc(F)c(S(=O)(=O)N2CCC3(CC2)CC(NC[C@H](O)COc2cccc(S(=O)(=O)N(C)C)c2)CO3)c1 (stereo partly drawn) [Compound 248, 3-((2S)-3-(8-(2-fluoro-5-methylphenylsulfonyl)-1-oxa-8-azaspiro[4.5]decan-3-ylamino)-2-hydroxypropoxy)-N,N-dimethylbenzenesulfonamide] the IC50 was 40.5 nM. Molecule Cc1cc(S(=O)(=O)N2CCC3(CC2)CC(NC[C@H](O)COc2cccc(S(=O)(=O)N(C)C)c2)CO3)ccc1Br (stereo partly drawn) [Compound 249, 3-((2S)-3-(8-(4-bromo-3-methylphenylsulfonyl)-1-oxa-8-azaspiro[4.5]decan-3-ylamino)-2-hydroxypropoxy)-N,N-dimethylbenzenesulfonamide] has an IC50 of 29.5 nM. CN(C)S(=O)(=O)c1cccc(OC[C@@H](O)CNC2COC3(CCN(S(=O)(=O)c4ccc5c(c4)NC(=O)CO5)CC3)C2)c1 (stereo partly drawn) [Compound 250, 3-((2S)-2-hydroxy-3-(8-(3-oxo-3,4-dihydro-2H-benzo[b][1,4]oxazin-6-ylsulfonyl)-1-oxa-8-azaspiro[4.5]decan-3-ylamino)propoxy)-N,N-dimethylbenzenesulfonamide] showed an IC50 of 24.2 nM. CN(C)S(=O)(=O)c1cccc(OC[C@@H](O)CNC2COC3(CCN(S(=O)(=O)c4ccc5nsnc5c4)CC3)C2)c1 (stereo partly drawn) [Compound 251, 3-((2S)-3-(8-(benzo[c][1,2,5]thiadiazol-5-ylsulfonyl)-1-oxa-8-azaspiro[4.5]decan-3-ylamino)-2-hydroxypropoxy)-N,N-dimethylbenzenesulfonamide] showed an IC50 of 32.9 nM. In the case of Cc1c(S(=O)(=O)N2CCC3(CC2)CC(NC[C@H](O)COc2cccc(S(=O)(=O)N(C)C)c2)CO3)cnn1-c1ccccc1 (stereo partly drawn) [Compound 252, 3-((2S)-2-hydroxy-3-(8-(5-methyl-1-phenyl-1H-pyrazol-4-ylsulfonyl)-1-oxa-8-azaspiro[4.5]decan-3-ylamino)propoxy)-N,N-dimethylbenzenesulfonamide], the IC50 is reported as 29.3 nM. CN(C)S(=O)(=O)c1cccc(OC[C@@H](O)CNC2COC3(CCN(S(=O)(=O)c4ccc5c(c4)CCCC5)CC3)C2)c1 (stereo partly drawn) [Compound 253, 3-((2S)-2-hydroxy-3-(8-(5,6,7,8-tetrahydronaphthalen-2-ylsulfonyl)-1-oxa-8-azaspiro[4.5]decan-3-ylamino)propoxy)-N,N-dimethylbenzenesulfonamide] was tested, and the IC50 was 22.6 nM. Cc1noc(C)c1S(=O)(=O)N1CCC2(CC1)CC(NC[C@H](O)COc1cccc(S(=O)(=O)N(C)C)c1)CO2 (stereo partly drawn) [Compound 254, 3-((2S)-3-(8-(3,5-dimethylisoxazol-4-ylsulfonyl)-1-oxa-8-azaspiro[4.5]decan-3-ylamino)-2-hydroxypropoxy)-N,N-dimethylbenzenesulfonamide] showed an IC50 of 97.3 nM. Molecule CN(C)S(=O)(=O)c1cccc(OC[C@@H](O)CNC2COC3(CCN(S(=O)(=O)c4ccc(-c5ccccc5)s4)CC3)C2)c1 (stereo partly drawn) [Compound 255, 3-((2S)-2-hydroxy-3-(8-(5-phenylthiophen-2-ylsulfonyl)-1-oxa-8-azaspiro[4.5]decan-3-ylamino)propoxy)-N,N-dimethylbenzenesulfonamide] has an IC50 of 55.1 nM. Work on CN1CCOc2ccc(S(=O)(=O)N3CCC4(CC3)CC(NC[C@H](O)COc3cccc(S(=O)(=O)N(C)C)c3)CO4)cc21 (stereo partly drawn) [Compound 256, 3-((2S)-2-hydroxy-3-(8-(4-methyl-3,4-dihydro-2H-benzo[b][1,4]oxazin-6-ylsulfonyl)-1-oxa-8-azaspiro[4.5]decan-3-ylamino)propoxy)-N,N-dimethylbenzenesulfonamide] yielded an IC50 of 21.1 nM. Work on CN(C)S(=O)(=O)c1cccc(OC[C@@H](O)CNC2COC3(CCN(S(=O)(=O)c4ccc(Cl)c5nonc45)CC3)C2)c1 (stereo partly drawn) [Compound 257, 3-((2S)-3-(8-(7-chlorobenzo[c][1,2,5]oxadiazol-4-ylsulfonyl)-1-oxa-8-azaspiro[4.5]decan-3-ylamino)-2-hydroxypropoxy)-N,N-dimethylbenzenesulfonamide] yielded an IC50 of 37 nM. With CNS(=O)(=O)c1cccc(OC[C@@H](O)CNC2COC3(CCN(S(=O)(=O)c4ccc(OC)c5ccccc45)CC3)C2)c1 (stereo partly drawn) [Compound 258, 3-((2S)-2-hydroxy-3-(8-(4-methoxynaphthalen-1-ylsulfonyl)-1-oxa-8-azaspiro[4.5]decan-3-ylamino)propoxy)-N-methylbenzenesulfonamide] the IC50 was 67.9 nM. For CNS(=O)(=O)c1cccc(OC[C@@H](O)CNC2COC3(CCN(S(=O)(=O)c4cc(Br)ccc4Cl)CC3)C2)c1 (stereo partly drawn) [Compound 259, 3-((2S)-3-(8-(5-bromo-2-chlorophenylsulfonyl)-1-oxa-8-azaspiro[4.5]decan-3-ylamino)-2-hydroxypropoxy)-N-methylbenzenesulfonamide], the IC50 was 23.1 nM. CNS(=O)(=O)c1cccc(OC[C@@H](O)CNC2COC3(CCN(S(=O)(=O)c4cc(Br)cc5c4OCC5)CC3)C2)c1 (stereo partly drawn) [Compound 260, 3-((2S)-3-(8-(5-bromo-2,3-dihydrobenzofuran-7-ylsulfonyl)-1-oxa-8-azaspiro[4.5]decan-3-ylamino)-2-hydroxypropoxy)-N-methylbenzenesulfonamide] gave an IC50 of 20.3 nM. CNS(=O)(=O)c1cccc(OC[C@@H](O)CNC2COC3(CCN(S(=O)(=O)c4c(C)nn(-c5ccccc5)c4C)CC3)C2)c1 (stereo partly drawn) [Compound 261, 3-((2S)-3-(8-(3,5-dimethyl-1-phenyl-1H-pyrazol-4-ylsulfonyl)-1-oxa-8-azaspiro[4.5]decan-3-ylamino)-2-hydroxypropoxy)-N-methylbenzenesulfonamide] was tested, and the IC50 was 47.5 nM. Work on CNS(=O)(=O)c1cccc(OC[C@@H](O)CNC2COC3(CCN(S(=O)(=O)c4c(Cl)ccc5nonc45)CC3)C2)c1 (stereo partly drawn) [Compound 262, 3-((2S)-3-(8-(5-chlorobenzo[c][1,2,5]oxadiazol-4-ylsulfonyl)-1-oxa-8-azaspiro[4.5]decan-3-ylamino)-2-hydroxypropoxy)-N-methylbenzenesulfonamide] yielded an IC50 of 54.3 nM. Work on CNS(=O)(=O)c1cccc(OC[C@@H](O)CNC2COC3(CCN(S(=O)(=O)c4cc(OC)ccc4C#N)CC3)C2)c1 (stereo partly drawn) [Compound 263, 3-((2S)-3-(8-(2-cyano-5-methoxyphenylsulfonyl)-1-oxa-8-azaspiro[4.5]decan-3-ylamino)-2-hydroxypropoxy)-N-methylbenzenesulfonamide] yielded an IC50 of 30.8 nM. CNS(=O)(=O)c1cccc(OC[C@@H](O)CNC2COC3(CCN(S(=O)(=O)c4ccc5cc(Cl)ccc5c4)CC3)C2)c1 (stereo partly drawn) [Compound 264, 3-((2S)-3-(8-(6-chloronaphthalen-2-ylsulfonyl)-1-oxa-8-azaspiro[4.5]decan-3-ylamino)-2-hydroxypropoxy)-N-methylbenzenesulfonamide] was tested, and the IC50 was 39 nM. Molecule CNS(=O)(=O)c1cccc(OC[C@@H](O)CNC2COC3(CCN(S(=O)(=O)c4cccc(C)c4C)CC3)C2)c1 (stereo partly drawn) [Compound 265, 3-((2S)-3-(8-(2,3-dimethylphenylsulfonyl)-1-oxa-8-azaspiro[4.5]decan-3-ylamino)-2-hydroxypropoxy)-N-methylbenzenesulfonamide] has an IC50 of 28.8 nM. With CNS(=O)(=O)c1cccc(OC[C@@H](O)CN[C@@H]2COC3(CCN(S(=O)(=O)c4ccc(OC)c(C)c4)CC3)C2)c1 [Compound 266, 3-((S)-2-hydroxy-3-((S)-8-(4-methoxy-3-methylphenylsulfonyl)-1-oxa-8-azaspiro[4.5]decan-3-ylamino)propoxy)-N-methylbenzenesulfonamide] the IC50 was 24.7 nM. Molecule CNS(=O)(=O)c1cccc(OC[C@@H](O)CN[C@H]2COC3(CCN(S(=O)(=O)c4ccc(OC)c(C)c4)CC3)C2)c1 [Compound 267, 3-((S)-2-hydroxy-3-((R)-8-(4-methoxy-3-methylphenylsulfonyl)-1-oxa-8-azaspiro[4.5]decan-3-ylamino)propoxy)-N-methylbenzenesulfonamide] has an IC50 of 9.43 nM. CNS(=O)(=O)c1cccc(OC[C@@H](O)CN[C@@H]2COC3(CCN(S(=O)(=O)c4cc(C)ccc4F)CC3)C2)c1 [Compound 268, 3-((S)-3-((S)-8-(2-fluoro-5-methylphenylsulfonyl)-1-oxa-8-azaspiro[4.5]decan-3-ylamino)-2-hydroxypropoxy)-N-methylbenzenesulfonamide] showed an IC50 of 12.3 nM. For CNS(=O)(=O)c1cccc(OC[C@@H](O)CN[C@H]2COC3(CCN(S(=O)(=O)c4cc(C)ccc4F)CC3)C2)c1 [Compound 269, 3-((S)-3-((R)-8-(2-fluoro-5-methylphenylsulfonyl)-1-oxa-8-azaspiro[4.5]decan-3-ylamino)-2-hydroxypropoxy)-N-methylbenzenesulfonamide], the IC50 was 24.7 nM. With CNS(=O)(=O)c1cccc(OC[C@@H](O)CN[C@@H]2COC3(CCN(S(=O)(=O)c4ccc(Br)c(C)c4)CC3)C2)c1 [Compound 270, 3-((S)-3-((S)-8-(4-bromo-3-methylphenylsulfonyl)-1-oxa-8-azaspiro[4.5]decan-3-ylamino)-2-hydroxypropoxy)-N-methylbenzenesulfonamide] the IC50 was 16.7 nM. With CNS(=O)(=O)c1cccc(OC[C@@H](O)CN[C@H]2COC3(CCN(S(=O)(=O)c4ccc(Br)c(C)c4)CC3)C2)c1 [Compound 271, 3-((S)-3-((R)-8-(4-bromo-3-methylphenylsulfonyl)-1-oxa-8-azaspiro[4.5]decan-3-ylamino)-2-hydroxypropoxy)-N-methylbenzenesulfonamide] the IC50 was 7.53 nM. CCn1cc(-c2cccc(S(=O)(=O)N3CCC4(CC3)CC(NC[C@H](O)COc3cccc(S(=O)(=O)N(C)C)c3)CO4)c2)cn1 (stereo partly drawn) [Compound 272, 3-((2S)-3-(8-(3-(1-ethyl-1H-pyrazol-4-yl)phenylsulfonyl)-1-oxa-8-azaspiro[4.5]decan-3-ylamino)-2-hydroxypropoxy)-N,N-dimethylbenzenesulfonamide] was tested, and the IC50 was 107 nM. Work on CN(C)S(=O)(=O)c1cccc(OC[C@@H](O)CNC2COC3(CCN(S(=O)(=O)c4cccc(-c5ccc(CN)cc5)c4)CC3)C2)c1 (stereo partly drawn) [Compound 273, 3-((2S)-3-(8-(4′-(aminomethyl)biphenyl-3-ylsulfonyl)-1-oxa-8-azaspiro[4.5]decan-3-ylamino)-2-hydroxypropoxy)-N,N-dimethylbenzenesulfonamide] yielded an IC50 of 15.5 nM.
